Experimental findings from patent publication US10285400B2, “Disinfectant composition containing quaternary ammonium compounds” (LONZA, INC., priority 2014, dated 2019) are described below.

SMILES strings stand for the structures.

One test has as its system Staphylococcus aureus (Sa). The test is described as follows: OECD Quantitative Method for Evaluating Bacterial Activity of Microbiocides Used on Hard Non-Porous Surfaces. The note with it: diluted with 375 ppm hard water, test concentration as in test composition. It counts as cell-based. An excerpt: (§1) Bardac 2250, containing of 50% didecyldimethylammonium chloride and 10% ethanol from Lonza, was used for the formulations.
Consider `CCCCCCCCCC[N+](C)(C)CCCCCCCCCC.[Cl-]` [Bardac 22, didecyldimethylammonium chloride], for which the “# Log Reduc. 5 min contact Sa” value is “ineffective”.
On the same count and under the same terms, as for `OO` [Sample 1, hydrogen peroxide], the figure is 0.3 Log.
In the case of `OO` [Sample 2, hydrogen peroxide], the “# Log Reduc. 5 min contact Sa” value is reported as 3.2 Log.
For the compound `OO` [hydrogen peroxide], the “# Log Reduc. 5 min contact Sa” value is on record as “ineffective”.

The next test concerns Pseudomonas aeruginosa (Pa). The test is described as above. It counts as cell-based. The note with it: diluted with 375 ppm hard water, test concentration as in test composition.
Text: as §1
Take `CCCCCCCCCC[N+](C)(C)CCCCCCCCCC.[Cl-]` [Bardac 22, didecyldimethylammonium chloride]: the “# Log Reduc. 5 min contact Pa” value is recorded as “ineffective”.
On the same count and under the same terms, as for `OO` [Sample 1, hydrogen peroxide], the figure is 1.6 Log; as for `OO` [Sample 2, hydrogen peroxide], 1.8 Log.
On to `CCCCCCCCCC[N+](C)(C)CCCCCCCCCC.[Cl-]` [Sample 3, didecyldimethylammonium chloride], for which the “# Log Reduc. 5 min contact Pa” value turned out to be 3.3 Log.
As to `OO` [hydrogen peroxide], the “# Log Reduc. 5 min contact Pa” value was “ineffective”.
